According to US20240008480A1, “MICROCAPSULE WITH ACETAMIDES AND DIFLUFENICAN” (MONSANTO TECHNOLOGY LLC, priority 2020, published 2024):

Columns and labels:
proso millet (PANMI) = experiment: Greenhouse pre-emergent efficacy, Example 3B; type: in vivo, Panicum miliaceum; conditions: both rates tested
Text: (§1) ACC, DFF and MRB were used as the commercial products Warrant®, Brodal® and TriCor® DF as described in Example 3A above. Further, also a DFF+MRB pre-mix (200 g/L DFF+400 g/L MRB, suspension concentrate) was used. For GR (glyphosate resistant) palmer amaranth (AMAPA), at 1X rate, all 2- and 3-way treatments provided >95% control. Except for the DFF+MRB pre-mix, these treatments also provided >95% control of GR AMAPA at ½X rate as well. No single active ingredient provided acceptable control of GR AMAPA in this trial.

[1] = tested on: GR (glyphosate resistant) palmer amaranth (AMAPA); experiment: Greenhouse pre-emergent efficacy, Example 3B; type: in vivo, Amaranthus palmeri
Text: as §1

[2] = tested on: glyphosate resistant Canola (Roundup Ready® Canola); experiment: Greenhouse post-emergent efficacy in glyphosate resistant Canola, Example 3C; type: in vivo; conditions: text statement on Table 3C
Procedure: ACC and DFF were used as the commercial products Warrant® and Brodal® as described in Example 3A above. The seeds of glyphosate resistant Canola (Roundup Ready® Canola) were planted in 3.5-inches (8.89 cm) square plastic pots filled with a potting media of 75% silt loam and 25% Redi-earth (Sun Gro, Bellevue, WA). The temperature conditions were 22° C. day and 17° C. night with 14 hours of supplemental light (approximately 600 microeinsteins). The pots are placed in a controlled-environment greenhouse equipped with sub-irrigation. The treatments applications were applied to the plants with a track sprayer generally using a TTI110015 nozzle spray nozzle. The spray nozzle was 16 inches (40.64 cm) above the top of the plants and a spray volume rate of about 140 L/ha was applied. The plants were sprayed when canola was at the V3-V4 growth stage. Visual ratings (% control) were collected at 14 DAT.

Compound | control of proso millet (PANMI), in words (proso millet (PANMI)) | control of GR AMAPA, in words [1] | herbicidal activity on glyphosate resistant Canola, in words [2]
CCOCN(C(=O)CCl)c1c(C)cccc1CC [ACC, 2-chloro-N-(ethoxymethyl)-N-(2-ethyl-6-methylphenyl)acetamide] | weak control | weak control | very low herbicidal activity
O=C(Nc1ccc(F)cc1F)c1cccnc1Oc1cccc(C(F)(F)F)c1 [DFF, N-(2,4-difluorophenyl)-2-[3-(trifluoromethyl)phenoxy]-3-pyridinecarboxamide] | weak control | weak control | 
